Results as given in patent US10537571B2, “Pyrimidine FGFR4 inhibitors” (priority 2013, dated 2020).
Where two headings read alike, the source gives them in different places.

Tested on: HEP3B tumor xenografts
Format: in vivo
Settings: for comparative tumor growth efficacy: Hep3B

| Compound | tolerability (health of animals) (30 mg/kg orally twice daily) | tolerability (health of animals) (60 mg/kg orally twice daily, dosing terminated on Day 11) | comparative tumor growth efficacy (60 mg/kg orally twice daily) | comparative tumor growth efficacy (25, 37.5 or 50 mg/kg i.p. twice daily) |
| --- | --- | --- | --- | --- |
| CCN1CCN(c2ccc(Nc3cc(N(C)C(=O)Nc4c(Cl)c(OC)cc(OC)c4Cl)ncn3)cc2)CC1 [BGJ398] | did not exhibit poor health | poor health of animals | efficacy comparable to compound 108 | – |
| C=CC(=O)Nc1cc(N2CCN(CC)CC2)ccc1Nc1cc(N(C)C(=O)Nc2c(Cl)c(OC)cc(OC)c2Cl)ncn1 [Compound 108, N-(2-(6-(3-(2,6-Dichloro-3,5-dimethoxyphenyl)-1-methylureido)pyrimidin-4-ylamino)-5-(4-ethylpiperazin-1-yl)-phenyl)acrylamide] | – | – | – | more efficacious than BGJ398 |
